Drawing on patent publication US20130324522A1, “INSECT ODORANT RECEPTOR ANTAGONISTS” (THE ROCKEFELLER UNIVERSITY, priority 2010, published 2013), this text covers inhibition and IC50 for eleven compounds.

Read-outs that look alike come from different tables or passages of the source. Some results are limits rather than exact numbers.

What all share (assay type): cell-based
In one assay the target is T1, TRP channel (TRPM8) (Mus musculus, UniProt Q8R4D5).
T1 construct: Full-length cDNAs for mosquito (Anopheles gambiae) odorant receptor (OR1, OR2, OR7, OR8, OR28), and fly (Drosophila melanogaster) odorant receptor (Or47a, Or83b), mouse TRP channel (TRPM8); expressed in transfected cells
Briefly: Ca2+-imaging of stable HEK293T cell line TRPM8. To be noted: for inhibition at 4 µM: HEK-293T, read-out: Percent Inhibition TRPM8; for IC50: read-out: IC50 TRPM8. As to the method:
(§1) Full-length cDNAs for mosquito (Anopheles gambiae) odorant receptor (OR1, OR2, OR7, OR8, OR28), and fly (Drosophila melanogaster) odorant receptor (Or47a, Or83b), mouse TRP channel (TRPM8), and mouse serotonin receptor (5HT3) were obtained and subcloned into mammalian expression vectors. The following mammalian expression vectors were used:
(§2) Stable cell lines OR1/OR7, OR2/OR7, OR8/OR7, OR10/OR7, OR28/OR7 and TRPM8 were generated from HEK293T cells. HEK293T-based cell lines were cultured in DMEM supplemented with these additional antibiotics: 6 μg/mL blasticidin and 1 μg/mL puromycin, with the exception of the TRPM8 cell lines, which was cultured in DMEM supplemented with 1 μg/mL puromycin.
(§3) Cells were trypsinized and split into 35 mm dishes one day before transfection. Confluent cells (60-70%) in 35 mm dishes were transfected with 1 μg of insect OR(X) plasmids in pME18s-bla and 1 μg of OR7-pME18s-puro using lipofectamine 2000. For Anopheles odorant receptors, two plasmids were co-transfected into HEK cells: the ligand-specific receptor (OR1, OR2, OR8, OR28) and the corresponding olfactory co-receptor: OR7. Cell lines containing TRPM8 were transfected with single plasmid.
(§4) Stable cell lines were cultured in 10 cm dishes, and confluent cells (70-80%) were trypsinized. 10,000 cells/20 μL were transferred into each well of 384-well plates coated with poly-D-lysine, and cultured for 2 days. For Flip-In T-Rex cells (cell lines expressing Or47a/Or83b and 5HT3), 5 μL of tetracycline (5 μg/mL) were added 1 day before the assay. 20 μL of Ca-4 dye was loaded into each well for 1.5 hr at room temperature in the dark, and the dye-loaded plates were subjected to Ca^2+-imaging using a Hamamatsu FDSS6000 real time fluorescence plate reader. Odorant solutions (9× final concentration) were prepared by dissolving 1M stock solutions into Hank's Buffered Salt Solution (HBSS), and 30 μL of odor solution was transferred to each well in 384-well plates.
(§5) Compounds ([…] in DMSO) were stored in 384-well plates, and last two columns (32 wells total) contained only DMSO. 200 nL of small compounds were transferred into the odorant plates before the assay using the Perkin-Elmer Janus workstation. The odorant plates were spun down to remove air bubbles, and placed on the FDSS6000 plate loader, and 5 μL of odorant solution was applied to the cell plate on the FDSS6000. Ca^2+ increase was monitored with fluorescence at 525 nm by excitation at 485 nm.

The next assay addresses T2, Or47a/Or83b (Drosophila melanogaster, UniProt P81921+Q9VNB5).
T2 construct: Full-length cDNAs for mosquito (Anopheles gambiae) odorant receptor (OR1, OR2, OR7, OR8, OR28), and fly (Drosophila melanogaster) odorant receptor (Or47a, Or83b); expressed in transfected cells
T2 sequence (P81921 1-385): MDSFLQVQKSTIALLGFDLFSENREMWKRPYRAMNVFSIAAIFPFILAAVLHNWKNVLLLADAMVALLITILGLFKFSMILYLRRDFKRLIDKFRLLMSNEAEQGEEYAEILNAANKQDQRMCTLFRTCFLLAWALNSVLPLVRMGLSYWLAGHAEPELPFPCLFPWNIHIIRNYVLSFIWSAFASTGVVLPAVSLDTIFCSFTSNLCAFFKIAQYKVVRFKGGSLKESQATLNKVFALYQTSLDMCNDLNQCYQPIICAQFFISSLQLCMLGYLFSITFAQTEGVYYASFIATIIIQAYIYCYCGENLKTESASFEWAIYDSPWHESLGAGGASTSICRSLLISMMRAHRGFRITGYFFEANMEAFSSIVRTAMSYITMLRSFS
T2 sequence (Q9VNB5 1-486): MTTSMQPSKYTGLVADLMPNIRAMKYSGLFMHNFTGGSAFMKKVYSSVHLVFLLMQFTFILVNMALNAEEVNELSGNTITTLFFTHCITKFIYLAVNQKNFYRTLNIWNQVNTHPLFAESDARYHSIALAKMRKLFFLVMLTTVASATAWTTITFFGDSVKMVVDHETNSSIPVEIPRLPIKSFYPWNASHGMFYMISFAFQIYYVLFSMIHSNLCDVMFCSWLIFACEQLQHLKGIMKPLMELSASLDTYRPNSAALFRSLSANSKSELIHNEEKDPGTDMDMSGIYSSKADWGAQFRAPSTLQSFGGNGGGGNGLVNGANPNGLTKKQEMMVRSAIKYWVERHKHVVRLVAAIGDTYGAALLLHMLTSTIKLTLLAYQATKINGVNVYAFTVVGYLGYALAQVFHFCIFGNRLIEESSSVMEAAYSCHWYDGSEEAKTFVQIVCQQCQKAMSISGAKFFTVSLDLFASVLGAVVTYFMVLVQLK
In words: Ca2+-imaging of stable Flip-In T-Rex cell line Or47a/Or83b. As to conditions: for inhibition at 4 µM: read-out: Percent Inhibition OR47a OR83b. As for the experimental part: as §1
Stable cell lines Or47a/Or83b and 5HT3 were generated from Flip-In T-Rex cells. Flip-In T-Rex-based cell lines were cultured in DMEM supplemented with these additional antibiotics: 6 μg/mL blasticidin and 100 μg/mL hygromycin.
Cells were trypsinized and split into 35 mm dishes 1 day before transfection. Confluent cells (60-70%) in 35 mm dishes were co-transfected with 1 μg of Or47a/Or83b plasmid in pcDNA5/FRT/TO/IRES plus the pOG44 plasmid or 1 μg of 5HT3 plasmid in pcDNA5/FRT/TO plus the pOG44 plasmid using lipofectamine 2000. Co-transfection of pOG44 and pcDNA5/FRT/TO/IRES or pcDNA5/FRT/TO allows expression of Flp recombinase and integration of the pcDNA5 plasmid into the genome via the FRT site. After one day of incubation, the transfected cells were transferred into 10 cm dishes with DMEM containing antibiotics: 20 μg/mL of hygromycin and 6 μg/mL of blasticidin. The concentration of Hygromycin was increased to 100 μg/mL when the population of cells became 30-40% confluent. The cells were cultured by changing medium every two days until cell clumps appeared. The clumps were picked and transferred into 96 well plates with DMEM containing 100 μg/mL of Hygromycin and 6 μg/mL of blasticidin. The cells were grown and transferred to 24 well plates, and ligand-evoked calcium increases were tested using the Hamamatsu FDSS6000 real time fluorescence plate reader.
as §4, §5

In another assay the target is OR28/OR7 (Anopheles gambiae, UniProt A0A1S4GFY3+Q7QCC7). Briefly: Ca2+-imaging of stable HEK293T cell line OR28/OR7. To be noted: for inhibition at 4 µM: HEK-293T, read-out: Percent Inhibition OR28 OR7. As to the method: as §1, §2, §3, §4, §5
Where [1] appears, read: ligand pentyl acetate 30 μM, read-out: IC50 OR47a OR83b.

T1 sequence (Q8R4D5 whole entry): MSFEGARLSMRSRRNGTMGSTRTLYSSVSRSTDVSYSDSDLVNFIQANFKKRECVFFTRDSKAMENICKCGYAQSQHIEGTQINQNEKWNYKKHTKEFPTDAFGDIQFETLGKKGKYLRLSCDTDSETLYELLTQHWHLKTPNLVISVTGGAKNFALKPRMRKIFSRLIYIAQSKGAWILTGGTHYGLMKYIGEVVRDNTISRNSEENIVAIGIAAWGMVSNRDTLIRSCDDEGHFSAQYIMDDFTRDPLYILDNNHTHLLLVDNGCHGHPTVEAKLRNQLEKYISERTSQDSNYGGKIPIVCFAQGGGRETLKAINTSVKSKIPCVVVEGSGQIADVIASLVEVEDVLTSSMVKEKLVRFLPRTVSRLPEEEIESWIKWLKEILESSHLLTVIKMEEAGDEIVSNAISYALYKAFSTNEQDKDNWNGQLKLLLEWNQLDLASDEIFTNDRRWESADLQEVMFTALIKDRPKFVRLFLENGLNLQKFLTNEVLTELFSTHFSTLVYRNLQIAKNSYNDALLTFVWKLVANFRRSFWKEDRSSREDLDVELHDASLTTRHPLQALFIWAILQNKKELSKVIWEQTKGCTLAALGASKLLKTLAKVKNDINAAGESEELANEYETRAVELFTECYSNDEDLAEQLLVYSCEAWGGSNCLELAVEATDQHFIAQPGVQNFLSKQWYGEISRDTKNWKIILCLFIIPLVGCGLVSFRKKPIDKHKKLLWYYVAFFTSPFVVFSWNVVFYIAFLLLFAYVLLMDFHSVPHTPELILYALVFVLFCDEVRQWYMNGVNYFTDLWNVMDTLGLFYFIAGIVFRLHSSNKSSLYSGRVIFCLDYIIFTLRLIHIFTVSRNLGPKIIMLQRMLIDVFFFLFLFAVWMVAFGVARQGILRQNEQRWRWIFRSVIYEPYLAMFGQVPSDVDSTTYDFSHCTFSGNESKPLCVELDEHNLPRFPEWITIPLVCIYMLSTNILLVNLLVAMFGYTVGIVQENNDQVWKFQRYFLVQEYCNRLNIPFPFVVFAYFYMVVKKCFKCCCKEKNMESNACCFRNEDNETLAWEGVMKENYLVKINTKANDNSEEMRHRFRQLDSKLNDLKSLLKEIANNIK
Chain of OR28/OR7 (A0A1S4GFY3 entry or part of it): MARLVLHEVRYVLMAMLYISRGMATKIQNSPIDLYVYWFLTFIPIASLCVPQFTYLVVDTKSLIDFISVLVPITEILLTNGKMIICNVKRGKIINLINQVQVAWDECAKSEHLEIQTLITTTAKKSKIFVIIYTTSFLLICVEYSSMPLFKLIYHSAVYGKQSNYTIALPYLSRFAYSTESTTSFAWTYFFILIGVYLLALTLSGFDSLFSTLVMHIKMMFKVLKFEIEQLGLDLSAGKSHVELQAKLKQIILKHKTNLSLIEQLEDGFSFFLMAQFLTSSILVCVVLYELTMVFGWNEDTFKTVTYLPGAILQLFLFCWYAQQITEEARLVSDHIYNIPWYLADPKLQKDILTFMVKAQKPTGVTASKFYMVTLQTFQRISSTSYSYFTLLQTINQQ
Chain of OR28/OR7 (Q7QCC7 whole entry): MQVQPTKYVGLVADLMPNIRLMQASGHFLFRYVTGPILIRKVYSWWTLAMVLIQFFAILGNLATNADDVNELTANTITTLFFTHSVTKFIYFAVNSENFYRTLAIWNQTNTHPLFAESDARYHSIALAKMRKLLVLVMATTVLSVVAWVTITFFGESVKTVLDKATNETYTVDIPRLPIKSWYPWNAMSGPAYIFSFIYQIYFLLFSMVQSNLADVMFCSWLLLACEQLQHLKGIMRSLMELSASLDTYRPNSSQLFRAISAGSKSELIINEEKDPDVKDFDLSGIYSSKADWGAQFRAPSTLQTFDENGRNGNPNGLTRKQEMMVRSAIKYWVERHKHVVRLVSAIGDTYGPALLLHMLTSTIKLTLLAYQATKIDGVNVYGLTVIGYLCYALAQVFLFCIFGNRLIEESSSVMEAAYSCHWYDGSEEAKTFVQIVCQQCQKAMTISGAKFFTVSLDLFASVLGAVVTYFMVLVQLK

For the compound `O=C(c1ccco1)N(Cc1ccco1)Cc1nccn1Cc1ccccc1F` [RU-0047694], the figures for the inhibition at 4 µM on TRP channel (TRPM8) (compound applied at 4 μM), at Or47a/Or83b (compound applied at 4 μM) and on OR28/OR7 (compound applied at 4 μM) were below 25%, 26 to 50% and above 75%, respectively. The IC50 on OR28/OR7 (Table B, read-out: IC50 OR28) was below 100 nM.
Regarding `CCN(CC)C(=O)Oc1ccc2c(ccn2Cc2ccc(Cl)cc2)c1NC(=O)C1CC1` [RU-0075475], the results for the inhibition at 4 µM at TRP channel (TRPM8), at Or47a/Or83b and at OR28/OR7 were below 25%, below 25% and above 75%, respectively. Further, the IC50 against OR28/OR7 was above 1000 nM.
For the compound `O=C(c1cccc(F)c1)N(Cc1c(-c2ccccc2)noc1N1CCCC1)CC1CCCO1` (stereo not drawn) [RU-0037434], the inhibition at 4 µM on TRP channel (TRPM8) (compound applied at 4 μM) is below 25%; on Or47a/Or83b (compound applied at 4 μM) it was 51 to 74%; on OR28/OR7 (compound applied at 4 μM) it was above 75%. Moreover, the IC50 on Or47a/Or83b (Table B, read-out: IC50 OR47a) was above 1000 nM; at OR28/OR7 (Table B, read-out: IC50 OR28), below 100 nM.
For the compound `Cc1c(C(=O)NCc2ccco2)cnn1-c1ccccc1` [RU-0047765], the inhibition at 4 µM is 26 to 50% on TRP channel (TRPM8) (compound applied at 4 μM), 26 to 50% on Or47a/Or83b (compound applied at 4 μM) and above 75% at OR28/OR7 (compound applied at 4 μM). For the same compound, the concentration for half-maximal inhibition (IC50) at Or47a/Or83b (Table B, read-out: IC50 OR47a) was above 1000 nM; on OR28/OR7 (Table B, read-out: IC50 OR28) it was below 100 nM.
Turning to `COCCCN(Cc1c(-c2ccccc2)noc1N(C)C(C)C)C(=O)c1ccccc1OC` [RU-0037003], the inhibition at 4 µM at TRP channel (TRPM8) (compound applied at 4 μM) was below 25%; at Or47a/Or83b (compound applied at 4 μM) it was below 25%; on OR28/OR7 (compound applied at 4 μM) it was above 75%. Also, the IC50 at OR28/OR7 (Table B, read-out: IC50 OR28) was below 100 nM.
Take `CC(C)CN(Cc1nccn1Cc1ccc(Cl)cc1Cl)C(=O)c1ccccc1F` [RU-0055322]: the inhibition at 4 µM at TRP channel (TRPM8) (compound applied at 4 μM) is below 25%; on Or47a/Or83b (compound applied at 4 μM), 26 to 50%; on OR28/OR7 (compound applied at 4 μM), above 75%. On OR28/OR7 (Table B, read-out: IC50 OR28), the IC50 was below 100 nM.
Take `COCCN(Cc1c(-c2ccccc2)noc1N1CCSCC1)CC(O)COCc1ccco1` (stereo not drawn) [RU-0037278]: the values for the inhibition at 4 µM on TRP channel (TRPM8) (compound applied at 4 μM), at Or47a/Or83b (compound applied at 4 μM) and at OR28/OR7 (compound applied at 4 μM) were below 25%, 51 to 74% and above 75%, respectively. Besides, the IC50 was above 1000 nM on Or47a/Or83b (Table B, read-out: IC50 OR47a) and below 100 nM at OR28/OR7 (Table B, read-out: IC50 OR28).
With `C=CCN(Cc1nccn1Cc1cccc(F)c1)C(=O)c1ccccc1F` [RU-I1], the half-maximal inhibitory concentration (IC50) was above 20 µM on TRP channel (TRPM8) (ligand menthol 300 μM); above 20000 nM at Or47a/Or83b (setting [1]); 20000 to 50000 nM on OR28/OR7 (ligand acetophenone 300 μM, read-out: IC50 OR28 OR7).
Regarding `c1ccc(CNc2nc(NCc3ccco3)nc(N3CCOCC3)n2)cc1` [RU-0020050], the values for the inhibition at 4 µM at TRP channel (TRPM8) (compound applied at 4 μM), on Or47a/Or83b (compound applied at 4 μM) and at OR28/OR7 (compound applied at 4 μM) were 26 to 50%, 51 to 74% and above 75%, respectively. Besides, the IC50 was below 100 nM at Or47a/Or83b (Table B, read-out: IC50 OR47a) and 100 to 1000 nM at OR28/OR7 (Table B, read-out: IC50 OR28).
For the compound `O=C(c1ccco1)N(Cc1nccn1Cc1ccccc1Cl)CC1CC1` [RU-0047281], the inhibition at 4 µM at TRP channel (TRPM8) (compound applied at 4 μM) is 51 to 74%; on Or47a/Or83b (compound applied at 4 μM) it was above 75%; on OR28/OR7 (compound applied at 4 μM), above 75%. Also, the half-inhibitory concentration (IC50) on TRP channel (TRPM8) (Table B) was above 1 µM; on Or47a/Or83b (Table B, read-out: IC50 OR47a), above 1000 nM; on OR28/OR7 (Table B, read-out: IC50 OR28), below 100 nM.
On to `CCNc1nc(NC(C)C)nc(SC)n1` [RU-T3], for which the values for the IC50 on TRP channel (TRPM8) (ligand menthol 300 μM), at Or47a/Or83b (setting [1]) and on OR28/OR7 were above 20 µM, 2000 to 20000 nM and 2000 to 20000 nM, respectively.
